Molecules are shown by their SMILES.

The target of the first experiment is T1, truncated human beta-secretase (residues 1-458, His6-tagged at the C-terminus) (Homo sapiens, UniProt P56817).
T1 construct: truncated human beta-secretase (residues 1-458, His6-tagged at the C-terminus); His6 (C); made in house; host or cells: insect cells D. melanogaster S2 (baculovirus expression system (so in the source))
T1 sequence (P56817 22-458): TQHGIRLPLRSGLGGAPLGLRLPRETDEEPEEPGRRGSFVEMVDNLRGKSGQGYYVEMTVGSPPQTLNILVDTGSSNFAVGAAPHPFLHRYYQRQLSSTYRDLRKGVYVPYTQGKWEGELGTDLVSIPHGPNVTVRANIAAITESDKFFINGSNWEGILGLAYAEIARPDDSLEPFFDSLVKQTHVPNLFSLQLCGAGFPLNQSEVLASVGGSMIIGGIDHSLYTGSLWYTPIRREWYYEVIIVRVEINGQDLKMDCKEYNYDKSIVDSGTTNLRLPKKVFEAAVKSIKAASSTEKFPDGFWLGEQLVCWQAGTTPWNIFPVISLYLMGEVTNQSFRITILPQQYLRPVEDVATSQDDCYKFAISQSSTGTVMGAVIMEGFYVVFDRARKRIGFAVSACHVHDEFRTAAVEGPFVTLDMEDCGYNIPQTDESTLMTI
The experiment can be described thus: BACE fluorescence quench assay. The class given is biochemical.
Conditions: not given
The method, then: The assay was performed at room temperature in 96-well white opaque Optiplates aque Optiplates (PerkinElmer, Waltham, Mass.) in a total volume of 200 μl of the incubation mixture containing 50 mM sodium acetate buffer, pH 4.5, 0.4 μM FRET substrate, 2.4 nM enzyme, 5% DMSO, and 0.05% Brij-35. The tested compounds were serially diluted in DMSO and pre-incubated with the substrate. The reaction was started by addition of enzyme, and the progress of the reaction was followed by measuring fluorescence with an excitation wavelength of 480 nm and an emission wavelength of 520 nm. Ten measurements were taken every 5-10 min, and the intensity of fluorescence was regressed against time in order to derive velocities of reaction in all 96 wells. […] IC50 values were calculated by fitting percent inhibition vs. inhibitor concentration into a four-parametric logistic model using XLFit software (IDBS, Guildford, UK).
`CN1C(=O)[C@@]2(C[C@H](c3ccccc3)Oc3ccc(Br)cc32)N=C1N` (racemic) [Compound 44a, Trans-2′-amino-6-bromo-1′-methyl-2-phenylspiro[chroman-4,4′-imidazol]-5′(1′H)-one]: the IC50 fell in the range of 5000 to 10000 nM.

For `CN1C(=O)[C@@]2(C[C@@H](c3ccccc3)Oc3ccc(Br)cc32)N=C1N` (relative stereo) [Compound 44b, Cis-2′-amino-6-bromo-1′-methyl-2-phenylspiro[chroman-4,4′-imidazol]-5′(1′H)-one], the IC50 was 5000 to 10000 nM.

The experiment is the same for the next values; noted with them: in vitro enzyme activity, BACE fluorescence assay, pH 4.5; read-out: IC50.
`CN1C(=O)[C@@]2(C[C@H](c3ccccc3)Oc3ccc(-c4cccc(C#N)c4)cc32)N=C1N` (racemic) [Compound 2a, 3-(2′-amino-1′-methyl-5′-oxo-2-phenyl-1′,5′-dihydrospiro[chroman-4,4′-imidazole]-6-yl)benzonitrile]: the IC50 lay within 1 to 100 nM.

In the case of `CN1O[C@@]2(C[C@H]([C@@H]3CCCOC3)Oc3ccc(-c4cc(F)cc(F)c4)cc32)N=C1N` (racemic) [Compound 326, (2S,4S/2R,4R)-6-(3,5-difluorophenyl)-2′-methyl-2-((S/R)-tetrahydro-2H-pyran-3-yl)-2′H-spiro[chroman-4,5′-[1,2,4]oxadiazol]-3′-amine], the IC50 fell in the range of 100 to 500 nM.

`CN1O[C@@]2(C[C@@]3(CCOC3)Oc3ccc(-c4cccc(C#N)c4)cc32)N=C1N` (relative stereo) [Compound 113a]: the IC50 was in the range of 500 to 1000 nM.

As to `CN1C(=O)[C@@]2(CC(c3cccs3)Oc3ccc(-c4cccc(C#N)c4)cc32)N=C1N` (stereo in doubt) [Compound 8a, 3-((2S,4S)-2′-amino-1′-methyl-5′-oxo-2-(thiophen-2-yl)-1′,5′-dihydrospiro[chroman-4,4′-imidazole]-6-yl)benzonitrile], the IC50 is 100 to 500 nM. Still for that read-out and setting: the result for `CN1C(=O)[C@@]2(CC(c3cccs3)Oc3ccc(-c4cccc(C#N)c4)cc32)N=C1N` (stereo in doubt) [Compound 8b, 3-((2R,4S)-2′-Amino-1′-methyl-5′-oxo-2-(thiophen-2-yl)-1′,5′-dihydrospiro[chroman-4,4′-imidazole]-6-yl)-benzonitrile] reads 1000 to 5000 nM. As for `CN1O[C@]2(C[C@@H](C[C@H]3CCCO3)Oc3ccc(-c4cccc(C#N)c4)cc32)N=C1N` (stereo in doubt) [Compound 360, 3-(3′-amino-2′-methyl-2-((tetrahydrofuran-2-yl)methyl)-2′H-spiro[chroman-4,5′-[1,2,4]oxadiazole]-6-yl)benzonitrile], the IC50 lay in the range of 500 to 1000 nM. With `CN1O[C@]2(C[C@H](CC3CCCO3)Oc3ccc(-c4cccc(C#N)c4)cc32)N=C1N` (stereo in doubt) [Compound 366, 3-(3′-amino-2′-methyl-2-((tetrahydrofuran-2-yl)methyl)-2′H-spiro[chroman-4,5′-[1,2,4]oxadiazole]-6-yl)benzonitrile], the IC50 lay in the range of 500 to 1000 nM.

As to `CN1O[C@]2(C[C@@H](C[C@@H]3CCCO3)Oc3ccc(-c4cccc(C#N)c4)cc32)N=C1N` (stereo in doubt) [Compound 367, 3-(3′-amino-2′-methyl-2-((tetrahydrofuran-2-yl)methyl)-2′H-spiro[chroman-4,5′-[1,2,4]oxadiazole]-6-yl)benzonitrile], the IC50 lay in the range of 500 to 1000 nM. Still for that read-out and setting: next, `CN1C(=O)C2(CC(C3CCCOC3)Oc3ccc(-c4cccc(C#N)c4)cc32)N=C1N` (stereo not shown) [Compound 1, 3-(2′-amino-1′-methyl-5′-oxo-2-(tetrahydro-2H-pyran-3-yl)-1′,5′-dihydrospiro[chroman-4,4′-imidazole]-6-yl)benzonitrile]: 1 to 100 nM; `CN1C(=O)C2(CC(c3ccccc3)Oc3ccc(-c4cccc(C#N)c4)cc32)N=C1N` (stereo not shown) [Compound 2, 3-(2′-amino-1′-methyl-5′-oxo-2-phenyl-1′,5′-dihydrospiro[chroman-4,4′-imidazole]-6-yl)benzonitrile]: 100 to 500 nM. The same measure, in the same setting: next, `CN1C(=O)[C@@]2(C[C@@H](c3ccccc3)Oc3ccc(-c4cccc(C#N)c4)cc32)N=C1N` [Compound 2b]: 1 to 100 nM.

The values above are taken from patent US8450308B2 (Vitae Pharmaceuticals, Inc., priority 2008, dated 2013).
